Consider two compounds from US6926892B2, “Protecting plants from oomycete pathogens by treatment with compositions containing serratamolide and oocydin a from Serratia marcescens” (HMV Corporation, priority 2000, dated 2005).

Values after ≈ are worked out from the molar mass of the structure shown.

Experiment [1] relates to Oomycetes. The following applies: from Strobel et al. 1999 / U.S. Ser. No. 09/858,871; cited from earlier work.
Experiment [2] relates to Oomycetes. Briefly: Minimum inhibitory concentration tests against a number of plant fungal pathogens (summary). It is filed as cell-based. The note with it: e.g., P. cactorum, P. capsici, P. ultimum. The method, then: (§1) 900 μl of potato dextrose broth was placed into the wells of a sterile 24-well culture plate. Serratamolide (in methanol) was added to the wells in concentrations of 0, 3.3, 10, 33 and 100 μg/ml. 20 μl methanol was added to one row to serve as a control. Fungal cultures to be tested were grown on PDA plates for three to five days. Pieces of agar containing the cultures were transferred to sterile microfuge tubes containing 0.5 ml sterile distilled water and broken up using a sterile Teflon pestle. 100 μl of PD broth containing the mycelia was added to each well, and growth inhibition was monitored over 3 days. At the end of 3 days cultures were transferred to a ground glass homogenizer, gently broken up, diluted in distilled water and the optical density measured using a Spectronic 20 spectrophotometer at 660 nm. The minimum inhibitory concentration was determined as the concentration of serratamolide compound needed to effect a 10% reduction in growth.

The next experiment deals with Rhizoctonia solani. Kind of experiment: Minimum inhibitory concentration in potato dextrose broth, 24-well plate. It is filed as cell-based. The note with it: 3 days, MIC = concentration needed to effect a 10% reduction in growth (OD 660 nm). The method, then:
as §1

The next experiment concerns Botrytis cinera. Described as above. The note with it: 3 days, MIC = concentration needed to effect a 10% reduction in growth (OD 660 nm). It is filed as cell-based. The method, then: as §1
A further experiment concerns Phytophthora cactorum. Described as above. Format: cell-based. The note with it: 3 days, MIC = concentration needed to effect a 10% reduction in growth (OD 660 nm). The method, then:
as §1

A further experiment deals with Phytophtora parasitica. The experiment is described as above. Format: cell-based. The note with it: 3 days, MIC = concentration needed to effect a 10% reduction in growth (OD 660 nm). The method, then:
as §1

For a further experiment, the system named is Phytophthora capsici. The description is as above. It is filed as cell-based. The note with it: 3 days, MIC = concentration needed to effect a 10% reduction in growth (OD 660 nm). On the procedure:
as §1

The subject of a further experiment is Pythium ultimum. Described as above. Format: cell-based. The following applies: 3 days, MIC = concentration needed to effect a 10% reduction in growth (OD 660 nm). On the procedure:
as §1

Consider `CC(=O)OC1CC(=O)O[C@H]2C[C@H](CC/C(Cl)=C\C/C=C\1C)O[C@H]2[C@@H](O)/C=C(\C)CC(=O)O` (some centres unmarked) [oocydin A], for which the “Activity against Oomycetes, MICs relative to metalaxyl” value in the experiment with Oomycetes [1] is “selective lethal activity against Oomycetes at MICs lower or similar to those noted for metalaxyl”.
Take `CCCCCCC[C@@H]1CC(=O)N[C@@H](CO)C(=O)O[C@H](CCCCCCC)CC(=O)N[C@@H](CO)C(=O)O1` [serratamolide]: the “Spectrum of activity among plant pathogens tested” value in the experiment with Oomycetes [2] is given as “active against Oomycetes only”. Besides, the Minimum inhibitory concentration in the experiment with Rhizoctonia solani is greater than 100 µg/mL; in the experiment with Botrytis cinera it was greater than 100 µg/mL; in the experiment with Phytophthora cactorum it was 60 µg/mL (≈ 117 µM); with Phytophtora parasitica it was 6 µg/mL (≈ 11.7 µM); in the experiment on Phytophthora capsici it was 10 µg/mL (≈ 19.4 µM); with Pythium ultimum, 6 µg/mL (≈ 11.7 µM).
